The text below walks through data of patent EP4516108A1, “METHOD FOR PRESERVING A BAKERY PRODUCT USING CHITOSAN AS INGREDIENT” (Mauri Technology B.V., priority 2023, dated 2025).

The conditions of series [1]: cited from earlier work.
A further series deals with A. niger. Put plainly: Accelerated shelf-life testing (ASLT): time of appearance (TOA) of mould on inoculated breadcrumbs.
Another series deals with P. paneum. Put plainly: Accelerated shelf-life testing (ASLT): time of appearance (TOA) and growth pattern of mould on inoculated breadcrumbs. The format is cell-based, Penicillium paneum. To be noted: Example 1, tin breads, ±500 spores, around 21 °C; CalPro 0.3% FWB, chitosan 1% FWB (about 1 wt.%).

The structures appear in SMILES notation.

Experimental for A. niger: Breads were made by mixing the dough ingredients from Table 1. The wt.% for several ingredients are given based on flour weight (Flour Weight Based, FWB). For the prepared recipes the difference with total dry weight is insubstantial. The following breads were prepared: a control without any preservatives, a reference containing 0.3% flour weight based (FWB) calcium propionate (CalPro), and a bread containing 1% chitosan (KitoZyme, Belgium) with number average MW of 15 kDa and degree of deacetylation (DDA) of 70%. […] Ingredients were mixed using a spiral mixer for 10 minutes. Afterwards the dough for each trial was divided into three pieces of 520 g, rounded manually, and placed into bread tins. The dough pieces were placed in a proofing cabinet to rise at 40 °C and 80% relative humidity until they reach similar height (fermentation time between 60-70 min). The breads were baked for 22 minutes in a deck oven at 260 (bottom) and 230 (top) °C.
Following baking, the breads were cooled in a HEPA-filtered chamber for 90 min. One bread was used for pH measurement and two breads were subjected to ASLT.
To perform ASLT, the remaining two breads were sliced to 13 mm slices. The crumb (inner part of breads) of three random slices from each bread were cut out using a cookie cutter (3.2 cm diameter) and placed in sterile 6-well plates (2x breads × 3 slices). Two 6-well plates were prepared per bread type. Each bread piece in a 6-well plate was inoculated with 3 aliquots of ±500 spores (20 pL) of either A. niger or P. paneum. Therefore, 18 spots of each mould were inoculated per trial (6 bread piece × 3 aliquots). Freeze-dried spores were used in all experiments. The inoculated breads incubated at room temperature of around 21 °C untill visible mould appearance. The appearance of the moulds was imaged by taking photographs. The images were inspected visually, and the TOA was defined as mould appearance in hours after mould inoculation.
Due to limited availability of the high MW chitosan samples, ASLT was performed at small scale in bread rolls. […]

`CC(O)C(=O)O` (stereo not drawn) [lactic acid]: the pKa result in series [1] is recorded as “about 3.85”.
Regarding `C/C=C/C=C/C(=O)O` [sorbic acid], the pKa result in series [1] is “about 4.76”.
For `CCC(=O)[O-].CCC(=O)[O-].[Ca+2]` [CalPro, calcium propionate], the “effectiveness against A. niger, CalPro compared to chitosan” value with A. niger (CalPro 0.3% FWB vs chitosan 1% FWB) is listed as “more effective”. Besides, the “TOA of A. niger improved compared to control without preservative” value in the series with A. niger (CalPro 0.3% FWB, FWF 0.78% FWB, chitosan >0.5 wt.%, alone or in combination) is listed as “approximately 50%”. Further, the “increased TOA of A. niger compared to control bread without preservatives” value in the series with A. niger (Example 1, tin breads, ±500 spores, around 21 °C, CalPro 0.3% FWB, chitosan 1% FWB (about 1 wt.%)) is recorded as 80%. Moreover, in the series on P. paneum, the “increased TOA of P. paneum compared to control bread without preservatives” value was 17%.
